Where a name gives a salt, the structure may show the parent alone.
Biological target: T1, R398Q mutant KCNT1 channels (Homo sapiens, UniProt Q5JUK3, R379Q)
T1 construct: YFP-6His; expressed in transfected cells; host or cells: HEK293T
T1 sequence (Q5JUK3 1-1235 isoform Q5JUK3-3 R398Q): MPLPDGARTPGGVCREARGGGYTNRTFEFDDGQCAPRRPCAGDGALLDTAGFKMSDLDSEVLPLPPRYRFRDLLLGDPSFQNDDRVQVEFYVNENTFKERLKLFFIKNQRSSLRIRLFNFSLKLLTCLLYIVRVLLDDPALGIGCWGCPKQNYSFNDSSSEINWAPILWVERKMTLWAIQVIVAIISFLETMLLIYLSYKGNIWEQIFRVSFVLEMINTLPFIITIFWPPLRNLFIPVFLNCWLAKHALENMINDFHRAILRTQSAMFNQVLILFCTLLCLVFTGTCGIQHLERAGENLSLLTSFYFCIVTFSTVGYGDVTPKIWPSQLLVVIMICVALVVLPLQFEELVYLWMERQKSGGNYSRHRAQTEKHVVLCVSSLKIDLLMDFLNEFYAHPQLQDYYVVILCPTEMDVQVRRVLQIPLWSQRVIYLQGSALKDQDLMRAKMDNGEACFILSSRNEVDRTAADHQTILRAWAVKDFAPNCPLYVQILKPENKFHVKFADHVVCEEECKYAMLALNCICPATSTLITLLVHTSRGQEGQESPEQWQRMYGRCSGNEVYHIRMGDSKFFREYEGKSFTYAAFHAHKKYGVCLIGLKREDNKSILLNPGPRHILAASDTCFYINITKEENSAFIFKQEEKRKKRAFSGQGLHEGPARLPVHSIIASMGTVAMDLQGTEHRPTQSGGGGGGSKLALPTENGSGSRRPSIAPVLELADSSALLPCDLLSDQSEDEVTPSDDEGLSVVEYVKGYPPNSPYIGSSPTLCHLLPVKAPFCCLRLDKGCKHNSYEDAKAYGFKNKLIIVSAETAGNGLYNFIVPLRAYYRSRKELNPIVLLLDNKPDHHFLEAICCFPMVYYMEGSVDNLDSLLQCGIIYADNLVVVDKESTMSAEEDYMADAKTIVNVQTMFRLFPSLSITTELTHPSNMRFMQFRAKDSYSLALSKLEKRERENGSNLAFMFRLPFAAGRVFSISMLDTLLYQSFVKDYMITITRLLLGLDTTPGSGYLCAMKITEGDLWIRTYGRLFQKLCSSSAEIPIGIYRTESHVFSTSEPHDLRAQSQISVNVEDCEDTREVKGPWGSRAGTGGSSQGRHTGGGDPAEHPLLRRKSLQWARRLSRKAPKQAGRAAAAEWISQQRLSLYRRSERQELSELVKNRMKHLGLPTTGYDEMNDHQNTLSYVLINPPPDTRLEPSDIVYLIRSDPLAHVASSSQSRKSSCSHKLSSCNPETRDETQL
Assay: Inside-out patch clamp of HEK293T cells expressing R398Q KCNT1
Assay type: cell-based
Conditions: inside-out patches, mean ± SEM
Procedure: The CHO cells were cultured in Dulbecco's modified Eagle's Medium (ThermoFisher, UK) supplemented with 10% (v/v) fetal bovine serum, 50 U/ml penicillin and 0.05 mg/ml streptomycin, and incubated at 37°C in 5% CO2 atmosphere. For whole cell recording of WT/Y796H KCNT1, CHO cells were transiently co‐transfected with concatemeric WT/Y796H and EYFP, as described previously.[29] For electrophysiological experiments, cells were plated onto borosilicate glass cover slips and used 2 to 4 days later. Human embryonic kidney 293T cells (HEK293T) were cultured in the same manner, but with medium supplemented with 2 mM L‐glutamine, and 1% (v/v) nonessential amino acids. For excised inside‐out recording of homomeric WT or mutant YFP‐tagged KCNT1, HEK293T cells plated on glass cover slips were transfected using Attractene Transfection Reagent (Qiagen, Germany) according to the manufacturer's instructions and used 2 to 3 days later.
Inside‐out patch clamp recordings were made at room temperature (23°C) from transiently transfected HEK293T cells, as described previously.[11] The pipette solution contained, in mM, 140 NaCl, 4 KCl, 2 CaCl2, 2 MgCl2, and 10 HEPES adjusted to pH 7.4 with NaOH. […] KCNT1 currents were recorded using 2 voltage protocols, depending on the number of active channels in the patch before drug application. Macroscopic currents (number of active channels > 15) were recorded in response to 100 ms voltage ramps between −120 and 120 mV applied every 2 seconds from a holding potential of −78 mV. […] With a lower number of active channels in the patch (3–15), current traces were recorded in response to 15‐second voltage steps to −20, 0, and 20 mV from a holding potential of −78 mV. Currents recorded at each voltage and each drug concentration were averaged over the duration of the trace and normalized to the average amplitudes of the corresponding current traces in drug‐free solution. […] Single channel data were analyzed using Ana software developed by Dr Michael Pusch (Istituto di Biofisica, Genova, Italy; http://users.ge.ibf.cnr.it/pusch/programs-mik.htm). […]

## CC(C)c1c(C(=O)Nc2ccccc2)c(-c2ccccc2)c(-c2ccc(F)cc2)n1CC[C@@H](O)C[C@@H](O)CC(=O)O [atorvastatin]
  IC50: 4500 ± 1700 nM

## Cc1c(O)cccc1C(=O)N[C@@H](CSc1ccccc1)[C@H](O)CN1C[C@H]2CCCC[C@H]2C[C@H]1C(=O)NC(C)(C)C [nelfinavir mesylate]
  IC50: 11.2 ± 2.2 nM

## O=C(OCCN1CCN(c2cccc(C(F)(F)F)c2)CC1)c1ccccc1Nc1ccnc2cc(C(F)(F)F)ccc12 [antrafenine]
  IC50: 30.7 ± 7.4 nM
